Consider 16 compounds from US9480259B2, “Pyrazolopyrans having herbicidal and pharmaceutical properties” (BASF SE, priority 2012, dated 2016).

The structures appear in SMILES notation. A value given as a limit tells only on which side of the number the result lay.

For assay [1], the target named is Arabidopsis thaliana SHMT. Description: SHMT activity assay (ED50 SHMT), coupled with N5,N10-CH2-THF dehydrogenase, NADH at 340 nm. The class given is biochemical. The following applies: values given as upper bounds. Summed up: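 His-tagged SHMT purified on Ni-NTA. NADH formation followed at 340 nm for 30 min; ED50 from inhibition of initial velocity.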
Assay [2] concerns SETFA, AMARE, POLCO, CHEAL, GALAP. Description: Greenhouse herbicidal test, post-emergence, weed panel. Format: in vivo. As to conditions: application rate 1 kg/ha, scale 0 to 100. An excerpt:
(§1) The seeds of the test plants were sown separately for each species. For the post-emergence treatment, the test plants were first grown to a height of 2 to 5 cm, depending on the plant habit, and only then treated with the active ingredients which had been suspended or emulsified in water. For this purpose, the test plants were either sown directly and grown in the same containers, or they were first grown separately as seedlings and transplanted into the test containers a few days prior to treatment. Depending on the species, the plants were kept at 10-25° C. or 20-35° C. The test period extended over 8 to 9 days. During this time, the plants were tended, and their response to the individual treatments was evaluated. Evaluation was carried out using a scale from 0 to 100. 100 means no emergence of the plants, or complete destruction of at least the aerial moieties, and 0 means no damage, or normal course of growth. A good herbicidal activity is given at values of at least 70 and a very good herbicidal activity is given at values of at least 85. The plants used in the greenhouse experiments belonged to the following species: [table]

Assay [3] has as its system SETFA (Setaria faberi). Description: Greenhouse herbicidal test, post-emergence, SETFA. Format: in vivo. The following applies: application rate 1 kg/ha, scale 0 to 100, read-out: herbicidal activity against SETFA.
Source text: as §1

In assay [4] the test system is AMARE (Amaranthus retroflexus). Description: Greenhouse herbicidal test, post-emergence, AMARE. As to conditions: Amaranthus retroflexus, application rate 1 kg/ha, scale 0 to 100, read-out: herbicidal activity against AMARE. Format: in vivo.
Source text: as §1

The subject of assay [5] is CHEAL (Chenopodium album). Description: Greenhouse herbicidal test, post-emergence, CHEAL. The class given is in vivo. The following applies: Chenopodium album, application rate 1 kg/ha, scale 0 to 100, read-out: herbicidal activity against CHEAL.
Source text: as §1

Assay [6] concerns GALAP (Galium aparine). Description: Greenhouse herbicidal test, post-emergence, GALAP. Format: in vivo. As to conditions: application rate 1 kg/ha, scale 0 to 100.
Source text: as §1

In assay [7] the test system is POLCO (Poligonum convolvulus). Description: Greenhouse herbicidal test, post-emergence, POLCO. The class given is in vivo. The following applies: Poligonum convolvulus, application rate 1 kg/ha, scale 0 to 100, read-out: herbicidal activity against POLCO.
Source text: as §1

The mark [8] stands for this setting: Arabidopsis thaliana SHMT enzyme assay.
Where [9] appears, read: Table 2, Arabidopsis thaliana SHMT enzyme assay.

On to `COCC(=O)N(C)c1cc(C#N)cc(C2(C(C)C)C(C#N)=C(N)Oc3[nH]nc(C)c32)c1` (centres unmarked) [Compound 2.688], for which, in assay [1] (setting [8]), the concentration for a half-maximal effect (EC50) was below 10 nM. In addition, the “herbicidal activity against at least three of the weeds SETFA, AMARE, POLCO, CHEAL, GALAP” value (shortened to “herbicidal activity against … CHEAL, GALAP”) in assay [2] is “good or very good”. The pest or weed control at 1000 g/ha in assay [3], in assay [4] and in assay [5] was at least 85% throughout.
For the compound `Cc1n[nH]c2c1C(c1cc(C#N)cc(N(C)C(=O)CCC#N)c1)(C(C)C)C(C#N)=C(N)O2` (centres unmarked) [Compound 2.663], in assay [1] (setting [8]), the concentration for a half-maximal effect (EC50) is below 10 nM. The “herbicidal activity against … CHEAL, GALAP” value in assay [2] is listed as “good or very good”. Besides, the pest or weed control at 1000 g/ha in assay [3] was at least 85%; in assay [4] it was at least 85%; in assay [5] it was at least 70%.
Compound `Cc1n[nH]c2c1C(c1cc(OCC#N)cc(C(F)(F)F)c1)(C1CCC1)C(C#N)=C(N)O2` (centres unmarked) [Compound 2.470] showed a 50% effective concentration (EC50) in assay [1] (Table 2) below 100 nM. The “herbicidal activity against … CHEAL, GALAP” value in assay [2] is reported as “good or very good”. The pest or weed control at 1000 g/ha in assay [3], in assay [4] and in assay [5] was at least 85% throughout.
Consider `COc1c(C#N)cc(C2(C3CCC3)C(C#N)=C(N)Oc3[nH]nc(C)c32)cc1C#N` (centres unmarked) [Compound 2.486], for which the concentration giving a half-maximal response (EC50) in assay [1] (Table 2) was below 10 nM. Also, in assay [2], the “herbicidal activity against … CHEAL, GALAP” value is given as “good or very good”. In addition, the pest or weed control at 1000 g/ha was at least 85% in assay [4] and at least 70% in assay [5]. The “herbicidal activity against GALAP” value in assay [6] is “very good (a very good herbicidal activity is given at values of at least 85)”.
On to `Cc1n[nH]c2c1C(c1cc(C#N)cc(N(C)C(=O)CCCC#N)c1)(C(C)C)C(C#N)=C(N)O2` (centres unmarked) [Compound 2.664], for which, in assay [1] (setting [8]), the 50% effective concentration (EC50) was below 10 nM. Also, in assay [2], the “herbicidal activity against … CHEAL, GALAP” value is recorded as “good or very good”. The pest or weed control at 1000 g/ha in assay [3], in assay [4] and in assay [5] was at least 85% in each case.
Regarding `CC(=O)NCC(=O)N(C)c1cc(C#N)cc(C2(C3CCC3)C(C#N)=C(N)Oc3[nH]nc(C)c32)c1` (centres unmarked) [Compound 2.709], the EC50 in assay [1] (setting [8]) is below 100 nM. For the same compound, the “herbicidal activity against … CHEAL, GALAP” value in assay [2] was “good or very good”. For the same compound, the pest or weed control at 1000 g/ha in assay [3] is at least 70%; in assay [4] it was at least 85%; in assay [5], at least 85%.
In assay [1] (setting [9]), `Cc1n[nH]c2c1C(c1cc(Cl)cc(C#N)c1)(C1CCC1)C(C#N)=C(N)O2` (centres unmarked) [Compound 2.280] came in with an EC50 below 10 nM. Besides, in assay [2], the “herbicidal activity against … CHEAL, GALAP” value is “good or very good”. Besides, the pest or weed control at 1000 g/ha in assay [4], in assay [7] and in assay [5] was at least 85% each time.
Compound `Cc1n[nH]c2c1C(c1cc(C#N)cc(N(C)C(=O)CC#N)c1)(C(C)C)C(C#N)=C(N)O2` (centres unmarked) [Compound 2.662] yielded a concentration for a half-maximal effect (EC50) in assay [1] (setting [8]) below 10 nM. Moreover, the “herbicidal activity against … CHEAL, GALAP” value in assay [2] is listed as “good or very good”. For the same compound, the pest or weed control at 1000 g/ha in assay [3], in assay [4] and in assay [5] was at least 85% in each case.
Regarding `Cc1n[nH]c2c1C(c1cc(Br)cc(C#N)c1)(C1CCC1)C(C#N)=C(N)O2` (centres unmarked) [Compound 2.281], the EC50 in assay [1] (setting [9]) was below 10 nM. In addition, the “herbicidal activity against … CHEAL, GALAP” value in assay [2] was “good or very good”. Further, the pest or weed control at 1000 g/ha in assay [4], in assay [7] and in assay [5] was at least 85% in each case.
Compound `CCC(=O)N(C)c1cc(C#N)cc(C2(C3CCC3)C(C#N)=C(N)Oc3[nH]nc(C)c32)c1` (centres unmarked) [Compound 2.611] came in with a half-maximal effective concentration (EC50) in assay [1] (Table 2) below 10 nM. In assay [2], the “herbicidal activity against … CHEAL, GALAP” value is “good or very good”. In addition, the pest or weed control at 1000 g/ha in assay [4], in assay [7] and in assay [5] was at least 85% in each case.
As for `Cc1n[nH]c2c1C(c1cc(C#N)cc(C#N)c1)(C1(F)CCC1)C(C#N)=C(N)O2` (centres unmarked) [Compound 2.569], in assay [1] (Table 2), the EC50 is below 100 nM. Also, the “herbicidal activity against … CHEAL, GALAP” value in assay [2] is reported as “good or very good”. Also, the pest or weed control at 1000 g/ha in assay [4], in assay [7] and in assay [5] was at least 85% throughout.
Regarding `COCC(=O)N(C)c1cc(C#N)cc(C2(C3CCC3)C(C#N)=C(N)Oc3[nH]nc(C)c32)c1` (centres unmarked) [Compound 2.615], in assay [1] (Table 2), the concentration for a half-maximal effect (EC50) is below 10 nM. Further, the “herbicidal activity against … CHEAL, GALAP” value in assay [2] is listed as “good or very good”. The pest or weed control at 1000 g/ha in assay [4], in assay [7] and in assay [5] was at least 85% throughout.
Take `Cc1n[nH]c2c1C(c1cc(C#N)cc(CCCC#N)c1)(C(C)C)C(C#N)=C(N)O2` (centres unmarked) [Compound 2.675]: the EC50 in assay [1] (setting [8]) was below 10 nM. Moreover, in assay [2], the “herbicidal activity against … CHEAL, GALAP” value is “good or very good”. The pest or weed control at 1000 g/ha in assay [3] was at least 70%; in assay [4], at least 85%; in assay [5], at least 85%.
The compound `Cc1n[nH]c2c1C(c1cc(C#N)cc(C(F)(F)F)c1)(C1CCC1)C(C#N)=C(N)O2` (centres unmarked) [Compound 2.282] registered an EC50 in assay [1] (setting [9]) below 10 nM. Besides, in assay [2], the “herbicidal activity against … CHEAL, GALAP” value is “good or very good”. Also, the pest or weed control at 1000 g/ha in assay [4], in assay [7] and in assay [5] was at least 85% in each case.
Consider `Cc1n[nH]c2c1C(c1cc(C(F)(F)F)cc(C(F)(F)F)c1)(C1(F)CC1)C(C#N)=C(N)O2` (centres unmarked) [Compound 2.247], for which, in assay [1] (setting [9]), the EC50 was below 10 nM. Also, in assay [2], the “herbicidal activity against … CHEAL, GALAP” value is “good or very good”. Besides, the pest or weed control at 1000 g/ha in assay [4], in assay [7] and in assay [5] was at least 85% throughout.
`Cc1n[nH]c2c1C(c1cc(Br)cc(N(C)C(=O)CC#N)c1)(C1CCC1)C(C#N)=C(N)O2` (centres unmarked) [Compound 2.729]: the EC50 in assay [1] (setting [8]) was below 10 nM. Besides, the “herbicidal activity against … CHEAL, GALAP” value in assay [2] was “good or very good”. Also, the pest or weed control at 1000 g/ha in assay [3] was at least 70%; in assay [4], at least 85%; in assay [5], at least 85%.
